What all share (assay type): cell-based, human
For assay [1], the system named is T cell proliferation in MLR (PBMC). Nature of the assay: one-way primary mixed lymphocyte reaction (MLR), PBMC + mitomycin-treated allogeneic PBMC, [3H]TdR uptake. How it is done: Human blood samples were collected in heparinized vacutainers. To facilitate removal of red blood cells (RBC), 2 ml of 6% dextran in phosphate buffered saline (PBS) (JRH Biosciences, Lenexa, Kans.) was added to each vacutainer, mixed and allowed to stand at room temperature for 30-45 min. The top buffy coat layer was carefully removed and cells centrifuged (300×g, 10 min., 4° C.). The cells were washed 3 times in 15 ml PBS. The peripheral blood mononuclear cells (PBMC) were isolated using a FICOLL-PAQUE (Pharmacia, Piscataway, N.J.) gradient. Ten ml of cells were layered on top of 4 ml FICOLL-PAQUE, centrifuged (1400×g, 20 min., room temperature) and the cells sedimenting at the interface were collected. These PBMC were washed 3 times in PBS, enumerated and resuspended in appropriate media for use in MLR experiments. […] Cell purity determined by staining with CD14 monoclonal antibodies and flow microfluorometric (FMF) analysis was 92% CD14^+. Viability determined by trypan blue exclusion was >95%.
The stimulator PBMAC were treated with 50 μl mitomycin C (Sigma Chemical Co., St. Louis, Mo.) for 20 minutes at 37° C. […] The cells were harvested onto a filter using a 96-well cell harvestor (Skatron, Inc., Sterling, Va.) and counted on a beta counter (Pharmacia LKB Nuclear Inc., Gaithersburg, Md.). […]

Assay [2] deals with PBMC + B. In words: MLR with purified normal B cells (CD20+) as stimulators, [3H]TdR uptake. To be noted: IL-10 200 U/ml; medium 3939 ± 100. How it is done:
(§1) The stimulator PBMAC were treated with 50 μl mitomycin C (Sigma Chemical Co., St. Louis, Mo.) for 20 minutes at 37° C. The responder PBMC and the stimulator cells were added to a 96-well microtiter plate (Becton Dickinson, Lincoln Park, N.J.) at 1×10^5 cells per well of each, along with cytokines or antibodies in a total volume of 200 μl in triplets. The cultures were incubated at 37° C. with 5% CO2 in air for 6 days. The cultures were then pulsed with 1 μCi [^3 H]TdR (15.6CI/mmol, NEN, Boston, Mass.) per well for 16 hours. The cells were harvested onto a filter using a 96-well cell harvestor (Skatron, Inc., Sterling, Va.) and counted on a beta counter (Pharmacia LKB Nuclear Inc., Gaithersburg, Md.).
(§2) The supernatant from the MLR was removed and the non-adherent PBMC harvested. The adherent cells were harvested by incubation with 5 mM EDTA at 4° C. for 20 minutes and gently scraped. Cells were combined, centrifuged at 300×g for 10 minutes and washed 3 times in ice-cold PBS. The viable cells were enumerated by Trypan Blue exclusion using a Neubaeur counting chamber, resuspended to 1×10^7 cell/ml in PBS and 100 μl of human IgG (1 mg/ml) was added to each well and incubated on ice. […] Mean channel fluorescence and percent positives for specific markers were determined using LYSIS II software (BDIS). […]

Assay [3] has as its system PBMC + JY. Nature of the assay: MLR with JY B cell line as stimulator, [3H]TdR uptake. As to the method: as §1
(§3) To address this question further, the ability of IL-10 to suppress the proliferation in MLR when allogeneic PBMC, purified B cells, monocytes or B cell lines were used as stimulators was studied.

Assay [4] has as its system PBMC + Daudi. In words: MLR with Daudi B cell line as stimulator, [3H]TdR uptake. To be noted: IL-10 200 U/ml; medium 37357 ± 4497. As to the method: as §1, §3
Assay [5] deals with PBMC + monocytes. In words: MLR with purified monocytes (CD14+) as stimulators. To be noted: monocytes (98% CD14+) as stimulators, PBMC as responder. How it is done: as §1, §2
Assay [6] has as its system IFN-γ. In words: IFN-γ in supernatant of JY-induced MLR, ELISA. To be noted: 60 hours; IL-10 100 U/ml, CSA 40 ng/ml; PBMC JY alone 5715. How it is done: (§4) ELISA kits for cytokine production determination were purchased from R&D systems, Minneapolis, Minn.
(§5) To investigate the mechanism by which B cell line-induced MLR resists suppression by IL-10, the effect of IL-10 on cytokine synthesis in this MLR was examined. The presence of IL-2, IFN-γ and TNF-α in supernatants of MLR set up with and without IL-10 ([…]) for 60 hours was determined using ELISA kits.
(§6) ^a The MLR cultures were set up as described above using PBMC (1
(§7) × 10^6 /ml) as responder and mitomycin Ctreated JY cells (5
(§8) × 10^5 cell/) or allogeneic PBMC (5 × 10^5) as
(§9) stimulators in a 24well plate for 60 hours. IL10 was used at 100 U/ml and […]
Background: ELISA stands for enzyme-linked immunosorbent assay.

Assay [7] has as its system IL-2. Nature of the assay: IL-2 in supernatant of JY-induced MLR, ELISA. The note with it: 60 hours; IL-10 100 U/ml, CSA 40 ng/ml; PBMC JY alone 3006. As to the method: as §4, §5, §6, §7, §8, §9
Assay [8] deals with TNF-α. In words: TNF-α in supernatant of JY-induced MLR, ELISA. The note with it: 60 hours; IL-10 100 U/ml, CSA 40 ng/ml; PBMC JY alone 154. How it is done: as §4, §5, §6, §7, §8, §9
The test system of assay [9] is IFN-γ. In words: IFN-γ in supernatant of PBMC + PBMC MLR, ELISA. To be noted: 60 hours; IL-10 100 U/ml; detection limit 25 pg/ml. How it is done: as §4, §5, §6, §7, §8, §9
Assay [10] deals with IL-2. In words: IL-2 in supernatant of PBMC + PBMC MLR, ELISA. The note with it: 60 hours; IL-10 100 U/ml; detection limit 50 pg/ml. As to the method:
as §4, §5, §6, §7, §8, §9

Assay [11] deals with TNF-α. Nature of the assay: TNF-α in supernatant of PBMC + PBMC MLR, ELISA. The note with it: 60 hours; IL-10 100 U/ml; detection limit 25 pg/ml. How it is done: as §4, §5, §6, §7, §8, §9
Assay [12] concerns direct allostimulation of T cells. Nature of the assay: direct allostimulation: one way primary MLR, responder PBMCs depleted of APC. To be noted: responder PBMCs depleted of APC's; similar with CD4+ or CD8+ responders. How it is done:
(§10) Purified PBMC from human blood were collected in heparinated tubes by FICOLL gradient. The blood was diluted 1:1 with PBS. 30 ml of the diluted blood was laid on top of 20 ml Ficoll in a 50 ml conical tube and spun at 2,000 rpm for 30 minutes. The interface cells were collected and washed 3 times with medium (10% FCS/RPMI).
(§11) The plastic adherent antigen presenting cells (APC) were removed by resuspended PBMC in 1%. human serum (Type AB) at 1×10^6 cells/ml, and incubated at 37° C. for 30 min. The cells which floated were collected and placed in media (10% FCS/RPMI).
(§12) Nylon wool adherent APC were removed as follows:
(§13) A 10 ml syringe was packed with 1.5 g of nylon wool (Polysciences, Inc., Cat. #18369) and autoclaved. A 3-way stopcock and a 22-gauge needle were attached to the syringe, and the column was washed with 50 ml of prewarmed medium. A cell suspension of 5×10^7 cells/ml of […] was prepared in prewarmed medium. Just before adding the cell suspension, the wool was rinsed with 5 ml of prewarmed medium, the column was left to run dry, and the stopcock was closed. Cells (5-10×10^7) were added. The cells were allowed to penetrate the column, and the stopcock was closed. An additional 0.5 ml of medium was added and the column maintained at 37° C. for 45 minutes. […]

In assay [13] the test system is indirect allostimulation of T cells. In words: indirect allostimulation: MLR, APC depleted from the stimulator population. To be noted: APC's depleted from the stimulator population. As to the method: as §10, §11, §12, §13

Some results are limits rather than exact numbers.

One may read the IC50 as the concentration that inhibits the measured activity by half.

Regarding “IL-10: human interleukin 10, a cytokine produced by T lymphocytes”, in assay [1], the IC50 came to 8 pM. The “CPM (mean ± SD), 3H-TdR uptake” value in [1] (Human IL-10 100 U/ml, 19B1 and rat IgG at 2.5 U g/ml, untreated MLR 5127 ± 935) is recorded as 643 ± 197 CPM. For the same substance, the “CPM (M ± SD), 3H-TdR uptake” value stood at 182 ± 47 CPM in assay [2]; 25182 ± 7302 CPM in [3] (IL-10 200 U/ml, medium 26222 ± 6293); 45763 ± 3089 CPM in assay [4]. In addition, in assay [3] (higher doses of IL-10 up to 1000 U/ml), the “suppression of JY-induced MLR” value was “did not suppress”. Further, the “suppression of MLR-induced proliferation” value in assay [5] is “strongly suppresses”. Besides, the “Cytokine concentration IFN-γ” value is 2960 pg/mL in assay [6] and less than 25 pg/mL in assay [9]. The “Cytokine concentration IL-2” value in [7] is 1294 pg/mL; in assay [10], less than 50 pg/mL. Besides, the figures for the “Cytokine concentration TNF-α” value in assay [8] and in assay [11] were 209 pg/mL and less than 25 pg/mL, respectively. Further, the “suppression of direct allostimulation, compared with CSA” value in assay [12] is recorded as “more suppression than CSA”. Besides, the “inhibition of indirect allostimulation, compared with CSA” value in assay [13] is recorded as “stronger inhibitor to the indirect allostimulation than CSA”.

(Values after patent US6022536A, “Combined use of interleukin 10 and cyclosporin for immunosuppression therapy” (Schering Corporation, priority 1996, dated 2000).)
